Assay [1] has as its system DNA. As to the kind of experiment: Binding affinity to calf thymus DNA at pH 7.0 at 20 uM by thermal denaturation assay. Type of assay: nucleic-acid assay. To be noted: Bos taurus.
Assay [2] has as its system DNA. As to the kind of experiment: Binding affinity to calf thymus DNA at pH 7.0 at 20 uM after 18 hrs by thermal denaturation assay. Type of assay: nucleic-acid assay. The conditions noted are these: Bos taurus.
Another assay deals with L1210. As to the kind of experiment: Cytotoxicity against mouse L1210 cells. In kind it is functional. To be noted: read-out: LC50 (the source's name).
The test system of another assay is PC-6. As to the kind of experiment: Cytotoxicity against human PC6 cells. Type of assay: functional. The conditions noted are these: read-out: LD50 (the source's name).
The subject of another assay is NCI/ADR-RES. As to the kind of experiment: Growth inhibition of human NCI/ADR-RES cells. In kind it is functional.
In another assay the test system is SK-MEL-5. The experiment in a line: Growth inhibition of human SK-MEL-5 cells. Type of assay: functional.
The next assay concerns DU-145. As to the kind of experiment: Growth inhibition of human DU145 cells. Type of assay: functional.
A further assay deals with SNB-19. The experiment in a line: Growth inhibition of human SNB19 cells. In kind it is functional.
The test system of the next assay is MDA-MB-435. As to the kind of experiment: Growth inhibition of human MDA-MB-435 cells. Type of assay: functional.
In another assay the test system is A549. The experiment in a line: Growth inhibition of human A549 cells. In kind it is functional.
Another assay concerns RPMI-8226. As to the kind of experiment: Growth inhibition of human RPMI8226 cells. Type of assay: functional.
The test system of another assay is SF-268. The experiment in a line: Growth inhibition of human SF268 cells. In kind it is functional.
The next assay relates to 786-0. As to the kind of experiment: Growth inhibition of human 786-0 cells. In kind it is functional.
Another assay deals with UACC-257. The experiment in a line: Growth inhibition of human UACC257 cells. Type of assay: functional.
Another assay concerns OVCAR-3. The experiment in a line: Growth inhibition of human OVCAR-3 cells. In kind it is functional.
A further assay concerns RXF 393. The experiment in a line: Growth inhibition of human RXF 393 cells. In kind it is functional.
Another assay deals with SK-OV-3. The experiment in a line: Growth inhibition of human SK-OV-3 cells. In kind it is functional.
Another assay deals with HCC 2998. As to the kind of experiment: Growth inhibition of human HCC2998 cells. In kind it is functional.
Assay [3] in a line: Growth inhibition of human HS 578T cells. Type of assay: functional.
A further assay has as its system MCF7. The experiment in a line: Growth inhibition of human MCF7 cells. Type of assay: functional.
The subject of another assay is OVCAR-8. As to the kind of experiment: Growth inhibition of human OVCAR8 cells. Type of assay: functional.
The subject of another assay is SR. As to the kind of experiment: Growth inhibition of human SR cells. Type of assay: functional.
The test system of another assay is TK-10. The experiment in a line: Growth inhibition of human TK10 cells. Type of assay: functional.
In another assay the test system is HCT-15. The experiment in a line: Growth inhibition of human HCT15 cells. In kind it is functional.
Another assay has as its system UACC-62. As to the kind of experiment: Growth inhibition of human UACC62 cells. In kind it is functional.
The test system of another assay is HCT-116. The experiment in a line: Growth inhibition of human HCT116 cells. Type of assay: functional.
A further assay concerns U-251. As to the kind of experiment: Growth inhibition of human U251 cells. Type of assay: functional.
In a further assay the test system is CAKI-1. As to the kind of experiment: Growth inhibition of human CAKI1 cells. Type of assay: functional.
The test system of the next assay is LOX IMVI. As to the kind of experiment: Growth inhibition of human LOX IMVI cells. In kind it is functional.
The test system of another assay is IGROV-1. The experiment in a line: Growth inhibition of human IGROV1 cells. In kind it is functional.
The test system of a further assay is NCI-H322M. As to the kind of experiment: Growth inhibition of human NCI-H322M cells. In kind it is functional.
For another assay, the system named is SW-620. As to the kind of experiment: Growth inhibition of human SW620 cells. In kind it is functional.
A further assay relates to NCI-H522. As to the kind of experiment: Growth inhibition of human NCI-H522 cells. Type of assay: functional.
The test system of a further assay is SK-MEL-2. The experiment in a line: Growth inhibition of human SK-MEL-2 cells. In kind it is functional.
The subject of another assay is NCI-H226. As to the kind of experiment: Growth inhibition of human NCI-H226 cells. In kind it is functional.
For the next assay, the system named is HL-60. As to the kind of experiment: Growth inhibition of human HL60(TB) cells. Type of assay: functional.
The subject of another assay is KM12. As to the kind of experiment: Growth inhibition of human KM12 cells. Type of assay: functional.
The test system of the next assay is HOP-92. The experiment in a line: Growth inhibition of human HOP92 cells. Type of assay: functional.
A further assay concerns SNB-75. The experiment in a line: Growth inhibition of human SNB75 cells. Type of assay: functional.
The next assay concerns T47D. As to the kind of experiment: Growth inhibition of human T47D cells. Type of assay: functional.
Another assay has as its system MDA-MB-468. As to the kind of experiment: Growth inhibition of human MDA-MB-468 cells. In kind it is functional.
The subject of another assay is M14. The experiment in a line: Growth inhibition of human M14 cells. Type of assay: functional.
Another assay relates to SK-MEL-28. The experiment in a line: Growth inhibition of human SK-MEL-28 cells. In kind it is functional.
A further assay concerns NCI-H23. The experiment in a line: Growth inhibition of human NCI-H23 cells. In kind it is functional.
The test system of another assay is K562. As to the kind of experiment: Growth inhibition of human K562 cells. In kind it is functional.
Another assay relates to CCRF-CEM. As to the kind of experiment: Growth inhibition of human CCRF-CEM cells. In kind it is functional.
The next assay relates to EKVX. As to the kind of experiment: Growth inhibition of human EKVX cells. Type of assay: functional.
In another assay the test system is ACHN. As to the kind of experiment: Growth inhibition of human ACHN cells. Type of assay: functional.
In another assay the test system is HT-29. The experiment in a line: Growth inhibition of human HT29 cells. Type of assay: functional.
A further assay concerns OVCAR-5. The experiment in a line: Growth inhibition of human OVCAR5 cells. Type of assay: functional.
The next assay has as its system COLO 205. As to the kind of experiment: Growth inhibition of human COLO 205 cells. In kind it is functional.
The test system of the next assay is UO-31. The experiment in a line: Growth inhibition of human UO31 cells. Type of assay: functional.
The nature of assay [4]: Growth inhibition of human 231/ATCC cells. In kind it is functional.
The next assay relates to BT-549. The experiment in a line: Growth inhibition of human BT549 cells. In kind it is functional.
Another assay relates to NCI-H460. As to the kind of experiment: Growth inhibition of human NCI-H460 cells. In kind it is functional.
A further assay has as its system SN12C. As to the kind of experiment: Growth inhibition of human SN12C cells. Type of assay: functional.
Another assay has as its system MOLT-4. As to the kind of experiment: Growth inhibition of human MOLT4 cells. Type of assay: functional.
The test system of the next assay is HOP-62. The experiment in a line: Growth inhibition of human HOP62 cells. Type of assay: functional.
The test system of another assay is Malme-3M. As to the kind of experiment: Growth inhibition of human MALME-3M cells. In kind it is functional.
The subject of the next assay is OVCAR-4. As to the kind of experiment: Growth inhibition of human OVCAR4 cells. In kind it is functional.
Another assay deals with SF-539. The experiment in a line: Growth inhibition of human SF539 cells. Type of assay: functional.

The text below walks through data of ChEMBL document CHEMBL1144686, “Solid-phase synthesis of new pyrrolobenzodiazepine-chalcone conjugates: DNA-binding affinity and anticancer activity” (2008).

In general, GI50 refers to the concentration that inhibits growth by half. Low values mean more potent growth inhibition, high ones less potent growth inhibition.

Each structure is given as a SMILES string.

`COc1cc(/C=C/C(=O)c2ccccc2O)ccc1OCCCCCOc1cc2c(cc1OC)C(=O)N1CCC[C@H]1C(=O)N2`: the deltaTm with DNA [1] came out at 7.1 °C; in the assay on DNA [2], 9 °C.

Take `COc1cc(/C=C/C(=O)c2ccccc2O)ccc1OCCCOc1cc2c(cc1OC)C(=O)N1CCC[C@H]1C(=O)N2`: the deltaTm with DNA [1] came out at 2 °C; in the assay on DNA [2] it was 3.5 °C.

On to `COc1cc2c(cc1O)N=C[C@@H]1CCCN1C2=O`, for which the values for the deltaTm with DNA [1] and in the assay with DNA [2] were 0.3 °C and 0.7 °C, respectively. Moreover, the CC50 in the assay on L1210 came out at 380 nM; in the assay with PC-6 it was 330 nM.

With `COc1cc(/C=C/C(=O)c2ccccc2O)ccc1OCCCCCOc1cc2c(cc1OC)C(=O)N1CCC[C@H]1C=N2`, the deltaTm in the assay with DNA [1] amounted to 3.1 °C; with DNA [2], 5 °C.

Consider `COc1cc(/C=C/C(=O)c2ccccc2O)ccc1OCCCCOc1cc2c(cc1OC)C(=O)N1CCC[C@H]1C=N2`, for which the figures for the deltaTm in the assay with DNA [1] and with DNA [2] were 1.7 °C and 2.1 °C, respectively.

Consider `COc1cc(/C=C/C(=O)c2ccccc2O)ccc1OCCCCOc1cc2c(cc1OC)C(=O)N1CCC[C@H]1C(=O)N2`, for which the values for the deltaTm in the assay on DNA [1] and in the assay on DNA [2] were 1 °C and 1.9 °C, respectively.

With `COc1cc(/C=C/C(=O)c2ccccc2O)ccc1OCCCOc1cc2c(cc1OC)C(=O)N1CCC[C@H]1C=N2`, the GI50 in the assay with NCI/ADR-RES came out at 308 nM; with SK-MEL-5 it was 24 nM; in the assay with DU-145, 25 nM; in the assay on SNB-19 it was 29 nM; with MDA-MB-435, 19 nM; with A549, 31 nM. Moreover, the GI50 was determined as 25 nM in the assay with RPMI-8226; 24 nM in the assay on SF-268; 25 nM in the assay on 786-0; 112 nM in the assay with UACC-257; 21 nM with OVCAR-3; 20 nM in the assay on RXF 393. Further, the concentration for 50% growth inhibition (GI50) with SK-OV-3 came to 406 nM; with HCC 2998, 138 nM; in [3], 23 nM; in the assay on MCF7, 32 nM; with OVCAR-8, 36 nM; in the assay on SR, 12 nM. Besides, the 50% growth inhibitory concentration (GI50) in the assay with TK-10 stood at 41 nM; in the assay on HCT-15 it was 247 nM; in the assay on UACC-62, 21 nM; in the assay with HCT-116 it was 33 nM; in the assay on U-251, 22 nM; with CAKI-1 it was 25 nM. Further, the concentration for 50% growth inhibition (GI50) in the assay with LOX IMVI worked out at 18 nM; in the assay on IGROV-1 it was 18 nM; in the assay with NCI-H322M, 307 nM; with SW-620 it was 19 nM; with NCI-H522, 26 nM; with SK-MEL-2, 67 nM. Besides, the GI50 in the assay with NCI-H226 is 138 nM; in the assay with HL-60, 17 nM; in the assay with KM12, 18 nM; in the assay with HOP-92, 44 nM; with SNB-75 it was 36 nM; in the assay with T47D, 29 nM. For the same compound, the GI50 with MDA-MB-468 amounted to 16 nM; in the assay on M14, 46 nM; in the assay with SK-MEL-28, 20 nM; with NCI-H23, 39 nM; in the assay on K562, 26 nM; in the assay on CCRF-CEM, 21 nM. Further, the GI50 in the assay on EKVX stood at 204 nM; in the assay with ACHN, 47 nM; in the assay with HT-29, 30 nM; with OVCAR-5, 25 nM; in the assay on COLO 205 it was 27 nM; with UO-31 it was 105 nM. The concentration for 50% growth inhibition (GI50) was found to be 26 nM in [4]; 17 nM in the assay with BT-549; 34 nM in the assay on NCI-H460; 28 nM with SN12C; 17 nM in the assay with MOLT-4; 39 nM in the assay with HOP-62. In addition, the GI50 turned out to be 37 nM in the assay with Malme-3M, 61 nM in the assay on OVCAR-4 and 28 nM with SF-539. Moreover, the deltaTm with DNA [1] stood at 5 °C; in the assay with DNA [2], 8.1 °C.
